Assay results reported in the supplement of paper PMC10307832.

How the values were obtained:
Test in all cases: relative viability (nuclei count vs DMSO), 5 days (fraction); higher = more cells survive
[1] = compound: Cn1cc(-c2cnn3c(N)c(Br)c([C@@H]4CCCNC4)nc23)cn1 + CCNC(=O)c1noc(-c2cc(C(C)C)c(O)cc2O)c1-c1ccc(CN2CCOCC2)cc1 [Luminespib] (partner 0.01 µM)
Outline: (§1)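 Lung cancer cell lines in 1536-well plates got either a single drug or a fixed anchor-drug dose together with five library-drug doses (not always all listed) in √10 steps, by pin tool, on the day after seeding. Nuclei were counted after 5 days, and relative viability is the treated-to-vehicle ratio of nuclei counts. Values are medians of duplicate plates.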

[2] = compound: Cn1cc(-c2cnn3c(N)c(Br)c([C@@H]4CCCNC4)nc23)cn1 + C[C@]1(O)C[C@@H](c2nc(-c3ccc4ccc(-c5ccccc5)nc4c3)c3c(N)nccn32)C1 [Linsitinib] (partner 1 µM)
Outline: as §1

[3] = compound: Cn1cc(-c2cnn3c(N)c(Br)c([C@@H]4CCCNC4)nc23)cn1 + CS(=O)(=O)CCNCc1ccc(-c2ccc3ncnc(Nc4ccc(OCc5cccc(F)c5)c(Cl)c4)c3c2)o1 [Lapatinib] (partner 2 µM)
Outline: as §1

[4] = compound: Cn1cc(-c2cnn3c(N)c(Br)c([C@@H]4CCCNC4)nc23)cn1 + COc1cccc2cc(-c3nc([C@H]4CC[C@H](C(=O)O)CC4)n4ncnc(N)c34)[nH]c12 [OSI-027] (partner 0.5 µM)
Outline: as §1

| Cell Line | relative viability ([1]; first compound 0.05 µM) | relative viability ([1]; first compound 0.1581 µM) | relative viability ([1]; first compound 0.5 µM) | relative viability ([1]; first compound 1.581 µM) | relative viability ([1]; first compound 5 µM) | relative viability ([2]; first compound 0.05 µM) | relative viability ([2]; first compound 0.1581 µM) | relative viability ([2]; first compound 0.5 µM) | relative viability ([2]; first compound 1.581 µM) | relative viability ([2]; first compound 5 µM) | relative viability ([3]; first compound 0.05 µM) | relative viability ([3]; first compound 0.1581 µM) | relative viability ([3]; first compound 0.5 µM) | relative viability ([3]; first compound 1.581 µM) | relative viability ([3]; first compound 5 µM) | relative viability ([4]; first compound 0.05 µM) | relative viability ([4]; first compound 0.1581 µM) | relative viability ([4]; first compound 0.5 µM) | relative viability ([4]; first compound 1.581 µM) | relative viability ([4]; first compound 5 µM) |
| --- | --- | --- | --- | --- | --- | --- | --- | --- | --- | --- | --- | --- | --- | --- | --- | --- | --- | --- | --- | --- |
| NCI-H1437 | 1.13 | 1.2 | 1.19 | 0.932 | 0.861 | 1.17 | 1.16 | 0.954 | 0.604 | 0.821 | 0.802 | 0.975 | 0.741 | 0.563 | 0.505 | 0.826 | 1.11 | 0.954 | 0.803 | 0.733 |
| SK-LU-1 | 0.184 | 0.207 | 0.233 | 0.186 | 0.165 | 1.13 | – | 0.465 | 0.318 | 0.255 | 0.871 | 0.585 | 0.758 | 0.321 | 0.19 | 0.39 | 0.279 | 0.237 | 0.248 | 0.183 |
| BEN | 0.305 | 0.463 | 0.311 | 0.332 | 0.337 | 1.04 | 0.977 | 0.918 | 0.686 | 0.738 | 0.84 | 0.762 | 0.655 | 0.736 | 0.516 | 0.481 | 0.288 | 0.251 | 0.572 | 0.295 |
| LC-2-ad | 1.01 | 1.11 | 1.26 | 1.03 | 1.08 | 0.907 | 0.891 | 0.821 | 0.884 | 0.86 | 1.02 | 1.04 | 0.923 | 0.754 | 0.925 | 0.806 | 0.879 | 0.905 | 0.884 | 0.736 |
| COR-L23 | 0.775 | 0.745 | 0.366 | 0.24 | 0.119 | 0.835 | 1.16 | 1.05 | 0.688 | 0.363 | 0.966 | 1.26 | 1.03 | 0.471 | 0.445 | 0.813 | 0.927 | 0.671 | 0.393 | 0.255 |
| RERF-LC-KJ | 1.34 | 1.28 | 0.693 | 0.863 | 0.873 | 0.932 | 0.936 | 0.914 | 0.809 | 0.749 | 0.917 | 0.966 | 0.862 | 0.828 | 0.771 | 0.639 | 0.543 | 0.535 | 0.527 | 0.511 |
| NCI-H1915 | 0.987 | 0.86 | 0.722 | 0.667 | 0.695 | 1.1 | 1.07 | 1.05 | 1.16 | 1.14 | 1 | 0.959 | 0.989 | 0.825 | 0.954 | 0.646 | 0.631 | 0.566 | 0.543 | 0.561 |
| NCI-H596 | 0.992 | 0.971 | 0.965 | 0.894 | 0.716 | 1.07 | 1.11 | 1.01 | 0.986 | 1.16 | 1.15 | 1.09 | 1.06 | 0.972 | 1 | 0.833 | 0.87 | 0.643 | 0.654 | 0.719 |
| NCI-H2009 | 1.04 | 1.09 | 0.98 | 0.962 | 0.889 | 1.14 | 1.31 | 1.22 | 1.12 | 1.09 | 0.975 | 1.06 | 0.865 | 0.798 | 0.794 | 0.681 | 0.709 | 0.534 | 0.515 | 0.422 |
| NCI-H2126 | 0.755 | 0.964 | 0.983 | 0.608 | 0.595 | 0.842 | 0.723 | 0.714 | 0.666 | 0.686 | 0.743 | 0.847 | 0.753 | 0.642 | 0.817 | 0.715 | 0.744 | 0.74 | 0.673 | 0.672 |
| LXF-289 | 0.729 | 0.803 | 0.645 | 0.648 | 0.55 | 0.976 | 1.07 | 1.07 | 0.903 | 1.04 | 0.922 | 1.02 | 0.887 | 0.904 | 0.896 | 0.853 | 0.896 | 0.82 | 0.82 | 0.766 |
| NCI-H1563 | 0.62 | 0.578 | 0.51 | 0.55 | 0.37 | 1.13 | 1.27 | 1.26 | 1.17 | 0.848 | 0.941 | 0.861 | 0.888 | 0.859 | 0.888 | 0.737 | 0.779 | 0.691 | 0.711 | 0.703 |
| HCC-44 | – | 0.995 | 1.29 | 0.557 | 0.771 | 0.685 | 0.872 | 0.821 | 0.65 | 0.631 | 1.01 | 1.15 | 1.1 | 0.8 | 0.968 | – | 0.604 | 0.683 | 0.414 | 0.434 |
| PC-14 | 0.179 | – | 0.179 | 0.159 | 0.165 | 0.854 | 1.11 | 1.05 | 0.877 | 0.578 | 0.322 | 0.366 | 0.363 | 0.332 | 0.257 | 1.02 | 0.83 | 0.638 | 0.248 | 0.206 |
| HOP-62 | 0.872 | 0.915 | 0.933 | 0.829 | 0.739 | 1.17 | 1.08 | 0.693 | 0.873 | 0.956 | 1.05 | 1.27 | 1.08 | 0.896 | 0.792 | 0.831 | 1.08 | 0.825 | 0.555 | 0.562 |
| NCI-H358 | 0.546 | 0.281 | 0.437 | 0.261 | 0.152 | 0.7 | 0.626 | 0.608 | 0.581 | 0.523 | 0.465 | 0.477 | 0.446 | 0.46 | 0.378 | 0.808 | 0.787 | 0.56 | 0.616 | 0.743 |
| SK-MES-1 | 0.651 | 0.406 | 0.419 | 0.24 | 0.187 | 1.05 | 1.1 | 1.04 | 0.971 | 0.289 | 0.491 | 0.544 | 0.514 | 0.392 | 0.431 | 0.621 | 0.562 | 0.416 | 0.244 | 0.16 |
